Assay results reported in patent US20220267288A1, “CARDIAC THERAPEUTIC” (priority 2019, published 2022).

Assays:
H9c2 cells = assay: Mitochondrial membrane potential (Δψm) dissipation, TMRM dye; assay type: cell-based; conditions: Rattus norvegicus; H9c2 cells, TMRM dye
Method: H9c2 cell line was purchased from American Tissue Type Collection (ATCC) (Manassas, Va.). The cells were cultured in low-glucose DMEM growth media (Cat No: 31600, Thermo Fisher Scientific, Waltham, Mass.) supplemented with 1.5 g/L sodium bicarbonate, 25 mM HEPES, 10% fetal bovine serum (FBS) (GE Healthcare, Singapore), 100 units/mL penicillin, 100 μg/mL streptomycin and 250 ng/mL amphotericin B in 75-cm^2 tissue-culture flasks at 37° C. in a humidified atmosphere of 5% CO2. Cells were fed every 2-3 days and sub-cultured once 70-80% confluency was achieved to prevent the loss of differentiation potential. For differentiation, H9c2 cells were seeded at a density of 100,000 cells/well in 12-well plates. The cells were maintained for 1 day in low-glucose high-serum growth media to allow for cell attachment. Subsequently, cells were differentiated using 1 μM ATRA.
Dissipation of Δψm by each test compound was measured using mitochondrial permeable dye, tetramethylrhodamine methyl ester perchlorate (TMRM) (Thermo Fisher Scientific, Waltham, Mass.). […] The media was aspirated, the cells were washed with PBS and fluorescence was measured at 557 nm excitation and 570 nm emission wavelengths. […] The media was aspirated and then the cells were treated with dronedarone and the dissipation of Δψm by AADs was measured as described.

CYP3A4 = molecular target: T1, CYP3A4 (Homo sapiens, UniProt P08684); conditions: literature value, similar experimental set-up; cited from earlier work
T1 construct: purchased BD Gentest (Woburn, Mass.)

CYP3A5 = molecular target: T2, CYP3A5 (Homo sapiens, UniProt P20815); conditions: literature value, similar experimental set-up; cited from earlier work
T2 construct: purchased BD Gentest (Woburn, Mass.)

[1] = system: chronic atrioventricular block dog; assay: Paroxysmal atrial fibrillation model in chronic atrioventricular block dogs; assay type: in vivo
Method: Experiments were performed using female beagle dogs weighing approximately 10 kg (n=4). Animals were obtained through Kitayama Labes Co., Ltd. (Nagano, Japan). All experiments were approved by the Toho University Animal Care and User Committee (No. 19-52-395) and performed according to the Guideline for the Care and Use of Laboratory Animals of Toho University.
The catheter ablation technique of atrioventricular node was employed as previously described^11,14. The dogs were anesthetized with pentobarbital sodium (30 mg/kg, i.v.). After intubation with a cuffed endotracheal tube, the respiration was controlled with room air using a volume-limited ventilator (SN-480-3; Shinano Manufacturing Co., Ltd., Tokyo, Japan). Tidal volume and respiratory rate were set at 20 mL/kg and 15 breaths/min, respectively. Heparin calcium (100 IU/kg, i.v.) was administered to prevent blood clotting. The surface lead II electrocardiogram was continuously monitored. A quad-polar electrodes catheter with a large tip of 4 mm (D7-DL-252; Cordis-Webster Inc., CA, USA) was inserted through the catheter sheath (FAST-CATH™ 406119; St. Jude Medical Daig Division, Inc., Minnetonka, Minn., USA) placed at the right femoral vein and positioned across the tricuspid valve under the guide of bipolar electrogram from the distal electrode pair. The optimal site for the atrioventricular node ablation; namely, the compact atrioventricular node, was determined on the basis of the intra-cardiac electrogram, of which a very small His deflection was recorded and atrial/ventricular voltage ratio was >2. The power source for the atrioventricular nodal ablation was obtained from an electrosurgical generator (MS-1500; Senko Medical Instrument Manufacturing Co., Ltd., Tokyo, Japan), which delivers continuous unmodulated radiofrequency energy at a frequency of 500 kHz. After determining the proper location, the radiofrequency energy of 20 W was delivered for 10 s from the tip electrode to an indifferent patch electrode positioned on the animal's back, which was continued then for 30 s if junctional ectopic complexes were induced. The endpoint of this procedure was the development of the complete atrioventricular block with an onset of stable idioventricular escaped rhythm. All surgical procedures described above were performed under the sterile condition.
The paroxysmal atrial fibrillation model was prepared as previously reported^12,13. More than 3 months after the induction of atrioventricular block, the dogs (n=4) were anesthetized with pentobarbital sodium (30 mg/kg, i.v.). After intubation with a cuffed endotracheal tube, the dogs were artificially ventilated with 0.5-1.5% isoflurane in oxygen using a volume-limited ventilator (SN-480-3; Shinano Manufacturing Co., Ltd.). Tidal volume and respiratory rate were set at 20 mL/kg and 15 breaths/min, respectively. The surface lead II electrocardiogram was obtained from the limb electrodes. […] An indwelling needle (Surflo® 18G; Terumo Corporation, Tokyo, Japan) was placed at the right femoral artery, through which the arterial blood pressure was measured.
Three sets of standard 6-French quad-polar electrodes catheter (Cordis-Webster Inc.) were used. First one was positioned at the high right atrium through the right femoral vein to electrically pace the sinus nodal area and to simultaneously obtain the right atrial electrogram. Second one was positioned in the esophagus via os to record to the left atrial electrogram. Third one was positioned at the inter-atrial septum of the right atrium through the left femoral vein to electrically induce paroxysmal atrial fibrillation as described below. The optimal sites of each catheter were determined by the temporal relationship between the bipolar atrial electrograms from the distal electrodes pair and P wave of the electrocardiogram. […]

[2] = high dose 3 mg/kg i.v., for 10-60 min

T1 sequence (P08684 whole entry): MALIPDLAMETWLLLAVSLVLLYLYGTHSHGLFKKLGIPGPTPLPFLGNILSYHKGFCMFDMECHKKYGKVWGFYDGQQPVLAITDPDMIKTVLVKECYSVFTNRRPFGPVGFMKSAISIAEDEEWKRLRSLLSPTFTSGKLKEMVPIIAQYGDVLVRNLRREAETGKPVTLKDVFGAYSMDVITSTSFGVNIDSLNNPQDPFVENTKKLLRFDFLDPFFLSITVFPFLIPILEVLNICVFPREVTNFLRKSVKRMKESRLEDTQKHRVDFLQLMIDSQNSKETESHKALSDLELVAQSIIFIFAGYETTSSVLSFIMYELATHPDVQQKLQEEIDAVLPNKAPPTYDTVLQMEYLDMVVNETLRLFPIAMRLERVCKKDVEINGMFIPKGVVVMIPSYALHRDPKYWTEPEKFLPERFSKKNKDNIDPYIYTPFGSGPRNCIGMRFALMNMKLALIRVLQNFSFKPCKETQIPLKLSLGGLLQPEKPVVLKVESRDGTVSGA
T2 sequence (P20815 whole entry): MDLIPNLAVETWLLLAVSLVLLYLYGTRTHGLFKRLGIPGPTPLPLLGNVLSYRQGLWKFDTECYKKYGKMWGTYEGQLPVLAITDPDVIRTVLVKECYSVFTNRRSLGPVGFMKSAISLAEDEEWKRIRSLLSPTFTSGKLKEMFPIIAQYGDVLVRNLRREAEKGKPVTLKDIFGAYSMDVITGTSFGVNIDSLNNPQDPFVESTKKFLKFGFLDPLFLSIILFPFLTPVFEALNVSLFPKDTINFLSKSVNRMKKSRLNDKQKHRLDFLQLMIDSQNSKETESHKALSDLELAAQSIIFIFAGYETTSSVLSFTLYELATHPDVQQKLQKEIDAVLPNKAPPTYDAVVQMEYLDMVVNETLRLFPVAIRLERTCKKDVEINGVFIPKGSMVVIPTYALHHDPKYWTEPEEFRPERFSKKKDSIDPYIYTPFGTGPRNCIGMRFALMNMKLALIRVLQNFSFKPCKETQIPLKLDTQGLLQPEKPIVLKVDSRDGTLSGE

Compound: CCCCc1oc2ccc(NS(C)(=O)=O)cc2c1C(=O)c1ccc(OCCCN(CCCC)CCCC)cc1.Cl [Dronedarone]
- IC50 (H9c2 cells): 500 nM
- CLint CYP3A4 reported by Hong et al (CYP3A4): 6.442 µL/min/pmol
- CLint CYP3A5 reported by Hong et al (CYP3A5): 2.604 µL/min/pmol

Compound: Cl.[2H]c1c(NS(C)(=O)=O)c([2H])c2c(C(=O)c3ccc(OCCCN(CCCC)CCCC)cc3)c(CCCC)oc2c1[2H] [Poyendarone, Methanesulfonamide, N-(2-butyl-3-(4-(3-(dibutylamino)propoxy)benzoyl)-1-benzo(4,6,7-d3)-furan-5-yl)hydrochloride]
- lethal ventricular arrhythmias or hemodynamic collapse ([1]; 0.3 and 3 mg/kg i.v., experimental period): No animals exerted any lethal ventricular arrhythmias or hemodynamic collapse leading to their death
- duration of atrial fibrillation after burst pacing (typical tracing) ([1]; 20 min after 3 mg/kg, pre-drug control 6.9 s): 1.8 s
- effect on AERP(CL200) ([1]; high dose 3 mg/kg i.v.): no significant change
- effect on VERP(CL400) ([1]; high dose 3 mg/kg i.v.): no significant change
- effect on cycle length of atrial fibrillation ([1]; high dose 3 mg/kg i.v.): tended to be prolonged, which did not achieve statistical significance
- effect on mean blood pressure ([1]; high dose 3 mg/kg i.v.): hardly altered
- effect on sinoatrial rate ([1]; high dose 3 mg/kg i.v.): hardly altered
- effect on IACT(CL300) ([1]; high dose 3 mg/kg i.v., at 10 min): prolonged
- effect on IACT(CL400) ([1]; high dose 3 mg/kg i.v., at 10 min and for 30-60 min): prolonged
- effect on AERP(CL300) [1, 2]: prolonged
- effect on AERP(CL400) [1, 2]: prolonged
- effect on IACT(CL200) [1, 2]: prolonged
- effect on duration of atrial fibrillation [1, 2]: shortened
- effect on AERP(CL200) ([1]; low dose 0.3 mg/kg i.v.): no significant change
- effect on AERP(CL300) ([1]; low dose 0.3 mg/kg i.v.): no significant change
- effect on IACT(CL200) ([1]; low dose 0.3 mg/kg i.v.): did not alter
- effect on IACT(CL300) ([1]; low dose 0.3 mg/kg i.v.): did not alter
- effect on IACT(CL400) ([1]; low dose 0.3 mg/kg i.v.): did not alter
- effect on VERP(CL400) ([1]; low dose 0.3 mg/kg i.v.): no significant change
- effect on cycle length of atrial fibrillation ([1]; low dose 0.3 mg/kg i.v.): did not alter
- effect on duration of atrial fibrillation ([1]; low dose 0.3 mg/kg i.v.): did not alter
- effect on mean blood pressure ([1]; low dose 0.3 mg/kg i.v.): hardly altered
- effect on sinoatrial rate ([1]; low dose 0.3 mg/kg i.v.): hardly altered
- effect on AERP(CL400) ([1]; low dose 0.3 mg/kg i.v., at 20 min): prolonged
